From patent US12421232B2, “Kinase inhibitor compounds and compositions and methods of use” (ICAHN SCHOOL OF MEDICINE AT MOUNT SINAI, priority 2018, dated 2025) come the findings set out here.

Structures are written as SMILES. Like-named read-outs stand apart in the source and are kept apart here.

What all share (test): KINOMEscan Assay (DiscoverX)
What all share (assay type): binding
Conditions in all cases: read-out: % DMSO Ctrl

One assay addresses T1, HIPK3 (Homo sapiens, UniProt Q9H422).
T1 construct: purchased DiscoverX

In the next assay the target is T2, HASPIN (Homo sapiens, UniProt Q8TF76).
T2 construct: purchased DiscoverX
T2 sequence (Q8TF76 1-798): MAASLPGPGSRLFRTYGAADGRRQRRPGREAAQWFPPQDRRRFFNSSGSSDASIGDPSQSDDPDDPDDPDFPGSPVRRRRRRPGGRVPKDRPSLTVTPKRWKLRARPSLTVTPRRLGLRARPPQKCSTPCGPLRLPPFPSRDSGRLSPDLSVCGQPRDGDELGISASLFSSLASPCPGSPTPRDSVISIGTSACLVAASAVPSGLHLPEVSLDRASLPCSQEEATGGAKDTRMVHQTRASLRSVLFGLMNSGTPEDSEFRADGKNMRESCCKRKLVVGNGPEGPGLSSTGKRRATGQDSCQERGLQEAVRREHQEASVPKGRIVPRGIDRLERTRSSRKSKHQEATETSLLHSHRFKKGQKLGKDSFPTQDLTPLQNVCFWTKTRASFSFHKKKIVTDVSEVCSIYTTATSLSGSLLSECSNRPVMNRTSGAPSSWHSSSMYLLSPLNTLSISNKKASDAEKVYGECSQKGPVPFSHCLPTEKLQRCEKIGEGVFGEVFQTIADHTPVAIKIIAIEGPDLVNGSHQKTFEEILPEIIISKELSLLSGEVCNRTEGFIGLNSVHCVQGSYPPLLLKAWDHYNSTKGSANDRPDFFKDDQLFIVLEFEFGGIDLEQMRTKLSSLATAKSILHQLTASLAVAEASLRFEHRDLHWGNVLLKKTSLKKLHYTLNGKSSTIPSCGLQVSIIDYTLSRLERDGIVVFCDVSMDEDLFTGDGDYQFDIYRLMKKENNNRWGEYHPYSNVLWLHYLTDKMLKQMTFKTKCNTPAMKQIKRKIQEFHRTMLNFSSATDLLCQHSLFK

In another assay the target is T3, HIPK2 (Homo sapiens, UniProt Q9H2X6).
T3 construct: purchased DiscoverX

The target in another assay is T4, PDGFRA (Homo sapiens, UniProt P16234).
T4 construct: purchased DiscoverX

A further assay has as its target T5, SGK (Homo sapiens, UniProt O00141).
T5 construct: purchased DiscoverX
T5 sequence (O00141 1-431): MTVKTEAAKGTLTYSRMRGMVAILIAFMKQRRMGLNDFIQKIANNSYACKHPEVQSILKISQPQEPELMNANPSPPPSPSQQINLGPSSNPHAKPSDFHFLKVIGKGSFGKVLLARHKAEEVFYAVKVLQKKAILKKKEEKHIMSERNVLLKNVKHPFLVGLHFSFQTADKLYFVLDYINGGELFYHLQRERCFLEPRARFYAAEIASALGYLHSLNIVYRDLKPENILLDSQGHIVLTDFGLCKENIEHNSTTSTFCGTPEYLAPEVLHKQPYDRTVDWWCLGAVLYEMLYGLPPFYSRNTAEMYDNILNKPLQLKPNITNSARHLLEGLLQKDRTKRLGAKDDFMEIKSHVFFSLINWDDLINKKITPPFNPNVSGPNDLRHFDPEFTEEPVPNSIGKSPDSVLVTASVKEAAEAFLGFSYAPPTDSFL

The target in a further assay is T6, FLT3 (Homo sapiens, UniProt P36888).
T6 construct: purchased DiscoverX
T6 sequence (P36888 27-993): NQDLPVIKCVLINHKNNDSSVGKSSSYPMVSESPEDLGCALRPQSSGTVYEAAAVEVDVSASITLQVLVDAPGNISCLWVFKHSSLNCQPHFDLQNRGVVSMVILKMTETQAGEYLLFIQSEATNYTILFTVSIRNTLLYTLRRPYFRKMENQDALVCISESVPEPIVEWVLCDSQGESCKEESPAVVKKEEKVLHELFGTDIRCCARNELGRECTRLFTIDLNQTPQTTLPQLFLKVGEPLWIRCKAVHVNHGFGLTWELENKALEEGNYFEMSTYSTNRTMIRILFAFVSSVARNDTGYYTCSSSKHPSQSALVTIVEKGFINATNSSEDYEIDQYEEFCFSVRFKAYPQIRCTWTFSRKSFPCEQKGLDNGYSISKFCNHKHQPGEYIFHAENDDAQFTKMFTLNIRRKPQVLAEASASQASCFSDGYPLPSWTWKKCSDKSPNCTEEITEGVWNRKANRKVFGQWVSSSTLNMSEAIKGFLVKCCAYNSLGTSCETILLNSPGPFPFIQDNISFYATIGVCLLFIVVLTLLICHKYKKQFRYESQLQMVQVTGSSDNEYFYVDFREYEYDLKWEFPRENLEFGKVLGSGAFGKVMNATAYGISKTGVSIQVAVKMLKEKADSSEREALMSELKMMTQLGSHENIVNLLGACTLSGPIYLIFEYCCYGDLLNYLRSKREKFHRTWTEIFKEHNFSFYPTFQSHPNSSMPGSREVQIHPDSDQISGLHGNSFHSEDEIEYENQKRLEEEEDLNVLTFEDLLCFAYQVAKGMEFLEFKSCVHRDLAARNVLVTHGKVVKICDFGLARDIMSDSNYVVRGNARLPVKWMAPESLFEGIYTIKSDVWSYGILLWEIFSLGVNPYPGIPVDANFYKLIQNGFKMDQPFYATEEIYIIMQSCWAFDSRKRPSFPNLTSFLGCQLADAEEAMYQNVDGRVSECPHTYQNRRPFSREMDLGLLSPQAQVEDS

The target of another assay is T7, ROCK2 (Homo sapiens, UniProt O75116).
T7 construct: purchased DiscoverX
T7 sequence (O75116 whole entry): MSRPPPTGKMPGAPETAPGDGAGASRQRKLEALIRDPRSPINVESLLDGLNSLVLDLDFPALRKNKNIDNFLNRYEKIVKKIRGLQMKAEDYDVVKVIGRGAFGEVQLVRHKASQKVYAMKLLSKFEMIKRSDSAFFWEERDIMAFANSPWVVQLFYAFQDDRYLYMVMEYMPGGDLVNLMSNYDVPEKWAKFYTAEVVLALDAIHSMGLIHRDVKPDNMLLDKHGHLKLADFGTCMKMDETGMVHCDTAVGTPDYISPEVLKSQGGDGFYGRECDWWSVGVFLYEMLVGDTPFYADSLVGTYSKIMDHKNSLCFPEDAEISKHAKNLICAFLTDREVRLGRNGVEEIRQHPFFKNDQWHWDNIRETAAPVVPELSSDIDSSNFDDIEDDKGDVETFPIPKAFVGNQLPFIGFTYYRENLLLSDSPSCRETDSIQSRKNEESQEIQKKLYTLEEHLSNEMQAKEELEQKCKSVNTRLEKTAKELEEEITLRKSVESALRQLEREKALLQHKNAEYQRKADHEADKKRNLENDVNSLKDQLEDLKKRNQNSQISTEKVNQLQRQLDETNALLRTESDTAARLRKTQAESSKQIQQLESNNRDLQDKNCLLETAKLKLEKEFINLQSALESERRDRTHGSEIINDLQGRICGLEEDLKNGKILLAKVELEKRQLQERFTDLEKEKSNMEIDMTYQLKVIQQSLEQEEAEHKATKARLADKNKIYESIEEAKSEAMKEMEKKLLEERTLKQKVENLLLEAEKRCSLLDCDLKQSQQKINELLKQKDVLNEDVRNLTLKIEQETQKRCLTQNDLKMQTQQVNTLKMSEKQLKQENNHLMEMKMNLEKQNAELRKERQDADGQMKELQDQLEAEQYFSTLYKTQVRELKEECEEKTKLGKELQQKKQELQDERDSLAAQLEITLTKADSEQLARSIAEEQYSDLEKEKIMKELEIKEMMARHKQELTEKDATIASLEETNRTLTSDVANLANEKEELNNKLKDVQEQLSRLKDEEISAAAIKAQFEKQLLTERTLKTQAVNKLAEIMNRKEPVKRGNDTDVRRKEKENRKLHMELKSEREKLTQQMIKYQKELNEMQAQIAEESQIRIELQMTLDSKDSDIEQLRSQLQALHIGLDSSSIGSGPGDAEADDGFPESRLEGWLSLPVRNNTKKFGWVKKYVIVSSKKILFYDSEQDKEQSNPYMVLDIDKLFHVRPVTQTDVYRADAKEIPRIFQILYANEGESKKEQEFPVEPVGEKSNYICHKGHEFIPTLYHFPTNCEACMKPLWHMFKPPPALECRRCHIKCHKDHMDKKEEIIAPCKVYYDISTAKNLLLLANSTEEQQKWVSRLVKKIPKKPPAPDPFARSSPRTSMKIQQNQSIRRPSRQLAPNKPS

T1 sequence (Q9H422 whole entry): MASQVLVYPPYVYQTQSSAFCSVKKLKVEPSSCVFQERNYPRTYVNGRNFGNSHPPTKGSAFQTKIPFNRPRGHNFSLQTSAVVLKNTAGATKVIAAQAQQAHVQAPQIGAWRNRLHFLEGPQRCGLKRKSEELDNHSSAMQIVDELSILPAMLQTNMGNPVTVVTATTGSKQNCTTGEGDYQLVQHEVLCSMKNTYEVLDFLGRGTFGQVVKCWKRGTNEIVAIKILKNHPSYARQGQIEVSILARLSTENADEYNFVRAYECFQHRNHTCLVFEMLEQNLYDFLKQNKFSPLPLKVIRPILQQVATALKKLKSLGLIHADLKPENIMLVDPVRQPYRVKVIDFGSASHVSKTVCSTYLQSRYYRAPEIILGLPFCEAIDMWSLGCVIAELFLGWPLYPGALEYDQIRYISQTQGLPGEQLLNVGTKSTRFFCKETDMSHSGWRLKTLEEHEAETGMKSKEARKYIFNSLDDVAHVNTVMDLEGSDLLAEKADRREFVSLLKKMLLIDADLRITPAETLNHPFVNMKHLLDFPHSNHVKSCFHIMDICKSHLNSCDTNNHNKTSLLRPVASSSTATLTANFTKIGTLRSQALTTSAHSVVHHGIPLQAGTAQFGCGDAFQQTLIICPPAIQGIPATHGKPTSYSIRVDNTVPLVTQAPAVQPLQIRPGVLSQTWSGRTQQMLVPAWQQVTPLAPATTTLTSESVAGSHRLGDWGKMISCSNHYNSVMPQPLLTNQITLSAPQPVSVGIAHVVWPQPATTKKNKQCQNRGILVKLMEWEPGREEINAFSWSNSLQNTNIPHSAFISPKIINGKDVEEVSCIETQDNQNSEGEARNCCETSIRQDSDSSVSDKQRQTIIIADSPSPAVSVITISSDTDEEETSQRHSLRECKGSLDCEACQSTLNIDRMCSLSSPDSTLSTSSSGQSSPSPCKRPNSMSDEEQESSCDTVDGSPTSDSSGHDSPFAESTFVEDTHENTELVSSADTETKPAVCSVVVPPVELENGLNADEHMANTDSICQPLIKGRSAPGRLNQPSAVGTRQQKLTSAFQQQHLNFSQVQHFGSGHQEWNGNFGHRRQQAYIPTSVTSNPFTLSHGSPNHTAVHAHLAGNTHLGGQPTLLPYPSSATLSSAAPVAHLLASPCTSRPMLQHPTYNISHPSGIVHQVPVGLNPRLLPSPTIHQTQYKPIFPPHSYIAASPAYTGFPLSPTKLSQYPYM
T3 sequence (Q9H2X6 whole entry): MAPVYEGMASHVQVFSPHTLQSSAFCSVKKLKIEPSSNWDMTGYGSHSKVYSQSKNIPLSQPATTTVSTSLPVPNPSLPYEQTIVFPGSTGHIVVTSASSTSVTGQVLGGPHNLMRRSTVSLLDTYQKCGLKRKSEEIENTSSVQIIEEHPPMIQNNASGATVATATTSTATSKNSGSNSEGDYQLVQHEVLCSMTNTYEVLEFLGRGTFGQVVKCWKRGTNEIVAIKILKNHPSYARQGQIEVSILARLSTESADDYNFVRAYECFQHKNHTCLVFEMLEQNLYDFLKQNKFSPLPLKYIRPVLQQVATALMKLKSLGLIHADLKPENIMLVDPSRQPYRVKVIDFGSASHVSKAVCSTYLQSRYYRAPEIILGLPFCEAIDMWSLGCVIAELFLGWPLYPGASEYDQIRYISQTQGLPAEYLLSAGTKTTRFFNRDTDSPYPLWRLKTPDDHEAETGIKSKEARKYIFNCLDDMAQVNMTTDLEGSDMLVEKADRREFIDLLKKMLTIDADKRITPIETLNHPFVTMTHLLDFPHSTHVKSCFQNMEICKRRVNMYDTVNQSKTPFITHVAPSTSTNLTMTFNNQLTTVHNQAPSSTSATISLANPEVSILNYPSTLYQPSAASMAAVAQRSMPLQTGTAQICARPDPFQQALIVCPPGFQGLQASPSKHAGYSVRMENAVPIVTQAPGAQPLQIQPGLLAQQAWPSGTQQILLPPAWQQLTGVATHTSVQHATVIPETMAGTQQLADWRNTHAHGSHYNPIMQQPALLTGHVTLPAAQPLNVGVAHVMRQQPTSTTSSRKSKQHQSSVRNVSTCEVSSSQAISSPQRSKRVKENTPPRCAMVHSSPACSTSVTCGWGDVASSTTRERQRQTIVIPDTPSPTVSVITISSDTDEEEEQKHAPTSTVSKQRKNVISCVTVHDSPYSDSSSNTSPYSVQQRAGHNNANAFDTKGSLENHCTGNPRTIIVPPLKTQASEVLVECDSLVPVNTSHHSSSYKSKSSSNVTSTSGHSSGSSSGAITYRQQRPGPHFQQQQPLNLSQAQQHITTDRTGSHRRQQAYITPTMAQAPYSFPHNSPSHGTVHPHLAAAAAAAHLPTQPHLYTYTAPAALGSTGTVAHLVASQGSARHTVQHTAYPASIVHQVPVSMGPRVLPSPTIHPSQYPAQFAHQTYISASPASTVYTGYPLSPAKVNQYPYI
T4 sequence (P16234 24-1089): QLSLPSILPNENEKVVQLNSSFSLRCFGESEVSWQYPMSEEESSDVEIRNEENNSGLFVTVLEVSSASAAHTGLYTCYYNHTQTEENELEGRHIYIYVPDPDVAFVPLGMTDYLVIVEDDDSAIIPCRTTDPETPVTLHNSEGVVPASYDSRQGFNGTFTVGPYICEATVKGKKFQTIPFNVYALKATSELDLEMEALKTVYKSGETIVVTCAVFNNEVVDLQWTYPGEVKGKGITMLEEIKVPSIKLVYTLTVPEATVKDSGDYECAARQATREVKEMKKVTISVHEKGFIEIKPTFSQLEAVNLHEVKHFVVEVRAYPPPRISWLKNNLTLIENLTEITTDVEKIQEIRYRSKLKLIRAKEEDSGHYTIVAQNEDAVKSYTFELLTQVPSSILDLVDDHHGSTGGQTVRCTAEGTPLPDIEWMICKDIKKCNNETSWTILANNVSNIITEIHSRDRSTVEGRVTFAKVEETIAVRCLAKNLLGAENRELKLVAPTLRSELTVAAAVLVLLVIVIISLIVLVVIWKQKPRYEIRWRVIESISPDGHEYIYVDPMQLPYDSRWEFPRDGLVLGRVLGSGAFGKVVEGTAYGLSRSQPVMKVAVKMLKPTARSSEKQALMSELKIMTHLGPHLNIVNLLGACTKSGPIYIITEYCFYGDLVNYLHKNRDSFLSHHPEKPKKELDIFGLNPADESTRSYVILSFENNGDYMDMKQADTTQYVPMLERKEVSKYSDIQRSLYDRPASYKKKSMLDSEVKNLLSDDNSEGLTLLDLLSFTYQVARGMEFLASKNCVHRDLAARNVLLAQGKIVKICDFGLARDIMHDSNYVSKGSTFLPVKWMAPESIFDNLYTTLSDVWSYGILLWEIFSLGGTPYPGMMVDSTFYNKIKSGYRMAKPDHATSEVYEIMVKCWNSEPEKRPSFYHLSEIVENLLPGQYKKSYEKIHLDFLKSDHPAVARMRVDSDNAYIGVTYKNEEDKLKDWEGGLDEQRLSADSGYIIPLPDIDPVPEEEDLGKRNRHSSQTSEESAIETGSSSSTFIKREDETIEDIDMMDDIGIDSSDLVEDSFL

In the case of `COc1ccc2c(c1)[nH]c1c(C)nccc12` [Harmine, reference compound], the remaining binding at 10 µM on HIPK3 worked out at 9.4%; at HASPIN, 2%; on HIPK2, 8.6%.

Consider `COc1ccc2c(c1)[nH]c1c(C)nc(CO)cc12` [Compound 2-8, (1-Methyl-7-methoxy-9H-pyrido[3,4-b]indol-3-yl)methanol], for which the remaining binding at 10 µM on PDGFRA (PDGFRA, 10 μM) stood at 100%; on SGK (SGK, 10 μM), 31%; on FLT3 (FLT3, 10 μM), 100%; on ROCK2 (ROCK2, 10 μM), 88%.

Turning to `COc1ccc2c3ccnc(C)c3n(CCCc3noc(N)n3)c2c1` [Compound 20-13, 3-(3-(7-Methoxy-1-methyl-β-carbolin-9-yl)propyl)-5-amino-1,2,4-oxadiazole], the remaining binding at 10 µM at PDGFRA turned out to be 83%; at SGK, 90%; at HIPK3, 6.2%; at HASPIN, 0.35%; at HIPK2 it was 2.3%; at FLT3, 86%. Further, the remaining binding at 10 µM at ROCK2 worked out at 86%.

In the case of `C#CCn1c2cc(OC)ccc2c2ccnc(C)c21` [Compound 20-23a, 3-(7-Methoxy-1-methyl-β-carbolin-9-yl)-propan-1-yne], the remaining binding at 10 µM is 100% at PDGFRA; 63% at SGK; 4.5% on HIPK3 (HIPK3, 10 μM); 1.7% on HASPIN; 71% at HIPK2 (HIPK2, 10 μM); 65% at FLT3. Besides, the remaining binding at 10 µM at ROCK2 is 16%.
